The record followed here is article PMC2607018, “Iodine Atoms: A New Molecular Feature for the Design of Potent Transthyretin Fibrillogenesis Inhibitors” (PLoS ONE, 2009).

Like-named read-outs stand apart in the source and are kept apart here.

For this experiment, the target named is TTR variant Y78F (Homo sapiens, UniProt P02766, Y98F). Nature of the experiment: Kinetic turbidity assay of acid induced fibril formation. It counts as biochemical. The source says: Two different parameters can be derived from this kinetic test. The IC50 value is the inhibitor concentration at which the initial rate of fibril formation is half than that in the absence of inhibitor. In turn, RA (%) can be defined as the percent reduction of fibril formation rate at high inhibitor concentration relative to the rate at zero concentration of tested compound.
An in vitro turbidimetric test in a high troughput mode was used to assess the fibrillogenesis inhibition potency of the compounds of the library. The mutant protein TTRY78F was incubated with various concentrations of test compounds in 96 well microplates. After lowering the pH of the solutions to 4.2, the incubation was extended for 1.5 h while recording the absorbance at 340 nm at 1 min intervals. […] (Figure S1).
The mutant Y78F TTR protein (0.4 mg.mL^-1) was incubated for 30 min (pH 7.6, 37 °C) with 6 concentrations of test compounds ranging from 0 to 40 µM in 96-well microplates.
IC50% value is the inhibitor concentration at which the initial rate of fibril formation is half of that in the absence of inhibitor. RA(%) is the percentage of reduction in fibril formation rate induced by a given concentration of test compound relative to the rate of experiments at zero concentration of test compound.

[1] abbreviates: inhibitor concentration at which the initial rate of fibril formation is half, Y78F TTR 0.4 mg/mL, pH 4.2, 37 °C, read-out: Kinetic turbidity assay IC50.
[2] abbreviates: fibrillogenesis inhibition assay, effect of iodination, read-out: Inhibitory efficiency, rough screening (Figure 3, measure not given).

With `O=C(O)C[C@H](NC(=O)c1cc(-c2ccc(F)cc2F)ccc1O)C(=O)O` [16a, N-[2’,4’-difluoro-4-hydroxy-[1,1’]-biphenyl-3-carbonyl]-L-aspartic], the IC50 under setting [1] was over 50 µM. For the compound `C[C@H](NC(=O)c1cc(-c2ccc(F)cc2F)ccc1O)C(=O)O` [9a, N-[2’,4’-difluoro-4-hydroxy-[1,1’]-biphenyl-3-carbonyl]-L-alanine], the IC50 under setting [1] was over 50 µM. Same read-out and setting: the value for `COC(=O)C(CC(=O)O)NC(=O)c1cc(-c2ccc(F)cc2F)ccc1O` [17a, N-[2’,4’-difluoro-4-hydroxy-[1,1’]-biphenyl-3-carbonyl]-L-aspartic α-methyl ester] was over 50 µM. Take `O=C(O)c1ccccc1Nc1cccc(C(F)(F)F)c1` [Flufenamic, reference compound]: under setting [2], the IC50 was determined as 10.9 µM. For `O=C(O)c1ccc(-c2ccccc2)cc1` [Biphenyl carboxylic, reference compound], the IC50 under setting [2] is 49 µM. `CC(C)CC(NC(=O)c1cc(-c2ccc(F)cc2F)ccc1O)C(=O)OC(C)(C)C` [13a, N-[2’,4’-difluoro-4-hydroxy-[1,1’]-biphenyl-3-carbony]-L-leucine tert-butyl ester]: the IC50 under setting [1] is over 50 µM. `CC(C)(C)OC(=O)CC(NC(=O)c1cc(-c2ccc(F)cc2F)ccc1O)C(=O)O` [18a, N-[2’,4’-difluoro-4-hydroxy-[1,1’]-biphenyl-3-carbonyl]-L-aspartic β-tert-butyl ester]: the IC50 under setting [1] stood at 38.3 µM. With `COC(=O)[C@H](CO)NC(=O)c1cc(-c2ccc(F)cc2F)cc(I)c1O` [15b, N-[2’,4’-difluoro-4-hydroxy-5-iodo-[1,1’]-biphenyl-3-carbonyl]-L-serine methyl ester], under setting [1], the IC50 amounted to 7.2 µM. With `O=C(O)CCNC(=O)c1cc(-c2ccc(F)cc2F)ccc1O` [22a], the IC50 under setting [1] is over 50 µM.

For the compound `COC(=O)[C@H](C)NC(=O)c1cc(-c2ccc(F)cc2F)cc(I)c1O` [10b, N-[2’,4’-difluoro-4-hydroxy-5-iodo-[1,1’]-biphenyl-3-carbonyl] -L-alanine methyl ester], the IC50 under setting [1] turned out to be 5.5 µM. `NC(=O)c1cc(-c2ccc(F)cc2F)ccc1O` [2a, 2’,4’-difluoro-4-hydroxy-[1,1’]-biphenyl-3-carboxamide]: the IC50 under setting [1] is over 50 µM. `O=C(N[C@@H](CO)C(=O)O)c1cc(-c2ccc(F)cc2F)cc(I)c1O` [14b, N-[2’,4’-difluoro-4-hydroxy-5-iodo-[1,1’]-biphenyl-3-carbonyl]–L-serine]: the IC50 under setting [1] turned out to be 3.7 µM. For `CC(C(=O)O)c1ccc(-c2ccccc2)c(F)c1` (stereo not drawn) [Flurbiprofen, reference compound], the IC50 under setting [2] was over 100 µM.

In the case of `NC(=O)C[C@H](NC(=O)c1cc(-c2ccc(F)cc2F)ccc1O)C(=O)O` [20a, N-[2’,4’-difluoro-4-hydroxy-[1,1’]-biphenyl-3-carbonyl]-L-asparagine], the IC50 under setting [1] was over 50 µM.

With `NC(Cc1ccc(Oc2ccc(O)cc2)cc1)C(=O)O` (stereo not drawn) [T0, thyronine, reference compound], the IC50 under setting [1] was over 50 µM. As to `CC(=O)Oc1ccc(-c2ccc(F)cc2F)cc1C(=O)O` [7a, 4-Acetoxy-2’,4’-difluoro-[1,1’]-biphenyl-3-carboxylic acid], under setting [1], the IC50 was over 50 µM. On the same count and under the same terms, the value for `COC(=O)C(CC(=O)O)NC(=O)c1cc(-c2ccc(F)cc2F)cc(I)c1O` [17b, N-[2’,4’-difluoro-4-hydroxy-5-iodo-[1,1’]-biphenyl-3-carbonyl]-L-aspartic α-methyl ester] was 4.1 µM; that for `CC(C)(C)OC(=O)[C@H](CC(N)=O)NC(=O)c1cc(-c2ccc(F)cc2F)ccc1O` [21a, N-[2’,4’-difluoro-4-hydroxy-[1,1’]-biphenyl-3-carbonyl]-L-asparagine tert-butyl ester] was over 50 µM.

For the compound `CC(=O)Oc1c(I)cc(-c2ccc(F)cc2F)cc1C(=O)O` [7b, 4-Acetoxy-2’,4’-difluoro-5-iodo-[1,1’]-biphenyl-3-carboxylic acid], the IC50 under setting [1] was determined as 4.8 µM. The same measure, in the same setting: the value for `O=C(NC(CO)C(=O)O)c1cc(-c2ccc(F)cc2F)ccc1O` (stereo not drawn) [14a] was over 50 µM; that for `CC(C)C[C@H](NC(=O)c1cc(-c2ccc(F)cc2F)cc(I)c1O)C(=O)O` [12b, N-[2’,4’-difluoro-4-hydroxy-5-iodo-[1,1’]-biphenyl-3-carbonyl]-L-leucine] was 5 µM.

As for `CCOC(=O)c1cc(-c2ccc(F)cc2F)ccc1O` [4a, 2’,4’-difluoro-4-hydroxy-[1,1’]-biphenyl-3-carboxylic acid ethyl ester], under setting [1], the IC50 is over 50 µM. On to `COC(=O)[C@H](C)NC(=O)c1cc(-c2ccc(F)cc2F)ccc1O` [10a, N-[2’,4’-difluoro-4-hydroxy-[1,1’]-biphenyl-3-carbonyl]-L-alanine methyl ester], for which the IC50 under setting [1] was over 50 µM.

For the compound `CC(C)C[C@H](NC(=O)c1cc(-c2ccc(F)cc2F)ccc1O)C(=O)O` [12a, N-[2’,4’-difluoro-4-hydroxy-[1,1’]-biphenyl-3-carbonyl]-L-leucine], the IC50 under setting [1] is over 50 µM. As for `O=C(O)c1ccc(Oc2ccccc2)cc1` [Phenoxybenzoic, reference compound], under setting [2], the IC50 worked out at 29 µM.

As to `COC(=O)C(CC(=O)OC(C)(C)C)NC(=O)c1cc(-c2ccc(F)cc2F)ccc1O` [19a, N-[2-,4’-difluoro-4-hydroxy-[1,1’]-biphenyl-3-carbonyl]-L-aspartic α-methyl ester and β-tert-butyl ester], the IC50 under setting [1] was over 50 µM. Same read-out and setting: the value for `CCOC(=O)[C@H](C)NC(=O)c1cc(-c2ccc(F)cc2F)ccc1O` [11a, N-[2’,4’-difluoro-4-hydroxy-[1,1’]-biphenyl-3-carbonyl]-L-alanine ethyl ester] was over 50 µM. In the case of `O=C(O)c1ccccc1O` [reference compound], the IC50 under setting [2] was over 100 µM. As to `COC(=O)[C@H](CO)NC(=O)c1cc(-c2ccc(F)cc2F)ccc1O` [15a, N-[2’,4’-difluoro-4-hydroxy-[1,1’]-biphenyl-3-carbonyl]-L-serine methyl ester], under setting [1], the IC50 is over 50 µM. Turning to `CCOC(=O)c1cc(-c2ccc(F)cc2F)cc(I)c1O` [4b], the IC50 under setting [1] is 6.9 µM. In the case of `CC(C)CC(NC(=O)c1cc(-c2ccc(F)cc2F)cc(I)c1O)C(=O)OC(C)(C)C` [13b, N-[2’-,4’-difluoro-4-hydroxy-5-iodo-[1,1’]-biphenyl-3-carbonyl)-L-leucine tert-butyl ester], the IC50 under setting [1] is over 50 µM.

With `Nc1ccc(-c2ccc(F)cc2F)cc1C(=O)O` [5a, 2’,4’-difluoro-4-amino-[1,1’]-biphenyl-3-carboxylic acid], under setting [1], the IC50 is over 50 µM. Consider `NC(=O)CC(NC(=O)c1cc(-c2ccc(F)cc2F)cc(I)c1O)C(=O)O` [20b, N-[2’-,4’-difluoro-4-hydroxy-5-iodo-[1,1’]-biphenyl-3-carbonyl]-L-asparagine], for which the IC50 under setting [1] stood at 7.7 µM. For the compound `NC(=O)c1cc(-c2ccc(F)cc2F)cc(I)c1O` [2b, 2’,4’-difluoro-4-hydroxy-5-iodo-[1,1’]-biphenyl-3-carboxamide], the IC50 under setting [1] was found to be 12.4 µM.

For the compound `Nc1c(I)cc(-c2ccc(F)cc2F)cc1C(=O)O` [5b, 2’,4’-difluoro-4-amino-3-iodo-[1,1’]-biphenyl-3-carboxylic acid], the IC50 under setting [1] worked out at 16.3 µM. On to `COC(=O)CCNC(=O)c1cc(-c2ccc(F)cc2F)ccc1O` [23a, N-[2’,4’-difluoro-4-hydroxy-[1,1’]-biphenyl-3-carbonyl]-β-alanine methyl ester], for which, under setting [1], the IC50 is over 50 µM. Consider `CC(NC(=O)c1cc(-c2ccc(F)cc2F)cc(I)c1O)C(=O)O` [9b, N-[2’,4’-difluoro-4-hydroxy-5-iodo-hydroxy-[1,1’]-biphenyl-3-carbonyl]-L-alanine], for which the IC50 under setting [1] turned out to be 5.8 µM.

Turning to `O=C(O)CNC(=O)c1cc(-c2ccc(F)cc2F)ccc1O` [8a, N-[2’,4’-difluoro-4-hydroxy-[1,1’]-biphenyl-3-carbonyl]-glycine], the IC50 under setting [1] was over 50 µM. For `CC(C)(C)OC(=O)[C@H](CC(N)=O)NC(=O)c1cc(-c2ccc(F)cc2F)cc(I)c1O` [21b, N-[2’,4’-difluoro-4-hydroxy-5-iodo-[1,1’]-biphenyl-3-carbonyl]-L-asparagine tert-butyl ester], under setting [1], the IC50 came out at 9.7 µM. Turning to `O=C(O)CNC(=O)c1cc(-c2ccc(F)cc2F)cc(I)c1O` [8b, N-[2’-,4’-difluoro-4-hydroxy-5-iodo-[1,1’]-biphenyl-3-carbonyl]-glycine], the IC50 under setting [1] amounted to 11.1 µM. On to `COC(=O)c1cc(-c2ccc(F)cc2F)cc(I)c1O` [3b, 2’,4’-difluoro-4-hydroxy-5-iodo-[1,1’]-biphenyl-3-carboxylic methyl ester], for which the IC50 under setting [1] is 6.1 µM. Same read-out and setting: the value for `COC(=O)c1cc(-c2ccc(F)cc2F)ccc1N` [6a, 2’,4’-difluoro-4-amino-[1,1’]-biphenyl-3-carboxylic acid methyl ester] was 41 µM. Take `O=C(O)CC(NC(=O)c1cc(-c2ccc(F)cc2F)cc(I)c1O)C(=O)O` [16b, N-[2’-,4’-difluoro-4-hydroxy-5-iodo-[1,1’]-biphenyl-3-carbonyl]-L-aspartic]: under setting [1], the IC50 is 5.2 µM. Turning to `COC(=O)c1cc(-c2ccc(F)cc2F)cc(I)c1N` [6b, 2’,4’-difluoro-4-amino-3-iodo-[1,1’]-biphenyl-3-carboxylic acid methyl ester], the IC50 under setting [1] stood at 7.5 µM. For `COC(=O)c1cc(-c2ccc(F)cc2F)ccc1O` [3a, 2’,4’-difluoro-4-hydroxy-[1,1’]-biphenyl-3-carboxylic methyl ester], the IC50 under setting [1] is over 50 µM.
